Source: US20230144436A1, “MUSCLE TARGETING COMPLEXES AND USES THEREOF FOR TREATING MYOTONIC DYSTROPHY” (Dyne Therapeutics, Inc., priority 2020, published 2023)

The substances below were run on DMPK (assay: DMPK knockdown by transfected antisense oligonucleotides in DM1 C15 myotubes at 0.5 nM and 50 nM). Details: 0.5 nM oligonucleotide, 72 hours.
Assay type: cell-based
How it was run: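 Seven-day-differentiated DM1 C15 myotubes transfected (Lipofectamine MessengerMax) with each oligonucleotide at 0.5 nM or 50 nM final, biological triplicates. After 72 h, DMPK mRNA quantified by qPCR, expressed relative to vehicle-only transfection set to 1.00.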

Substance | Percent DMPK Reduction [%]
377 (UUUCCCGAGUAAGCAGGCAG; chemistry not given here) [compound 377] | 20.69
378 (GGAUGUUGUCGGGUUUGAUG; chemistry not given here) [compound 378] | 4.26
379 (CAGGUAGUUCUCAUCCUGGA; chemistry not given here) [compound 379] | 25.92
380 (UGCCCAUAGAACAUUUCAUA; chemistry not given here) [compound 380] | 7.67
381 (UAGUUCUCAUCCUGGAAGGC; chemistry not given here) [compound 381] | 16.83
382 (AUGUCCCUGUGCACGUAGCC; chemistry not given here) [compound 382] | 16.78
383 (CGGGCCCGGAUCACAGGACU; chemistry not given here) [compound 383] | 17.45
384 (UGGACGAUCUUGCCAUAGGU; chemistry not given here) [compound 384] | 19.20
385 (GUUGGCCGGCGUGGGCCACC; chemistry not given here) [compound 385] | -1.82
386 (CUCAGUGCAUCCAAAACGUG; chemistry not given here) [compound 386] | 7.65
387 (UCGAAGUUGCAUGUGUCGGU; chemistry not given here) [compound 387] | 22.96
388 (UGGAACACGGACGGCCCGGC; chemistry not given here) [compound 388] | -1.90
389 (CCGAGAGCAGCGCAAGUGAG; chemistry not given here) [compound 389] | 16.13
390 (UCCUGCAACUGCCGGACGUG; chemistry not given here) [compound 390] | 16.06
391 (UCACCAACACGUCCCUCUCC; chemistry not given here) [compound 391] | 47.12
392 (UGCCUGCAGCAACUCCAUCC; chemistry not given here) [compound 392] | 13.99
393 (UUGGCCGGCGUGGGCCACCA; chemistry not given here) [compound 393] | -3.19
394 (GAGCCUCUGCCUCGCGUAGU; chemistry not given here) [compound 394] | 18.77
395 (AAGGGCGUCUGCCCAUAGAA; chemistry not given here) [compound 395] | 13.15

Same assay, conditions: 0.5 nM oligonucleotide, 72 hours, relative to vehicle control = 1.00

Substance | Normalized DMPK Remaining
377 (UUUCCCGAGUAAGCAGGCAG; chemistry not given here) [compound 377] | 0.79
378 (GGAUGUUGUCGGGUUUGAUG; chemistry not given here) [compound 378] | 0.96
379 (CAGGUAGUUCUCAUCCUGGA; chemistry not given here) [compound 379] | 0.74
380 (UGCCCAUAGAACAUUUCAUA; chemistry not given here) [compound 380] | 0.92
381 (UAGUUCUCAUCCUGGAAGGC; chemistry not given here) [compound 381] | 0.83
382 (AUGUCCCUGUGCACGUAGCC; chemistry not given here) [compound 382] | 0.83
383 (CGGGCCCGGAUCACAGGACU; chemistry not given here) [compound 383] | 0.83
384 (UGGACGAUCUUGCCAUAGGU; chemistry not given here) [compound 384] | 0.81
385 (GUUGGCCGGCGUGGGCCACC; chemistry not given here) [compound 385] | 1.02
386 (CUCAGUGCAUCCAAAACGUG; chemistry not given here) [compound 386] | 0.92
387 (UCGAAGUUGCAUGUGUCGGU; chemistry not given here) [compound 387] | 0.77
388 (UGGAACACGGACGGCCCGGC; chemistry not given here) [compound 388] | 1.02
389 (CCGAGAGCAGCGCAAGUGAG; chemistry not given here) [compound 389] | 0.84
390 (UCCUGCAACUGCCGGACGUG; chemistry not given here) [compound 390] | 0.84
391 (UCACCAACACGUCCCUCUCC; chemistry not given here) [compound 391] | 0.53
392 (UGCCUGCAGCAACUCCAUCC; chemistry not given here) [compound 392] | 0.86
393 (UUGGCCGGCGUGGGCCACCA; chemistry not given here) [compound 393] | 1.03
394 (GAGCCUCUGCCUCGCGUAGU; chemistry not given here) [compound 394] | 0.81
395 (AAGGGCGUCUGCCCAUAGAA; chemistry not given here) [compound 395] | 0.87

Same assay, conditions: 50 nM oligonucleotide, 72 hours

Substance | Percent DMPK Reduction [%]
377 (UUUCCCGAGUAAGCAGGCAG; chemistry not given here) [compound 377] | 44.89
378 (GGAUGUUGUCGGGUUUGAUG; chemistry not given here) [compound 378] | 40.81
379 (CAGGUAGUUCUCAUCCUGGA; chemistry not given here) [compound 379] | 76.71
380 (UGCCCAUAGAACAUUUCAUA; chemistry not given here) [compound 380] | 34.56
381 (UAGUUCUCAUCCUGGAAGGC; chemistry not given here) [compound 381] | 43.88
382 (AUGUCCCUGUGCACGUAGCC; chemistry not given here) [compound 382] | 49.29
383 (CGGGCCCGGAUCACAGGACU; chemistry not given here) [compound 383] | 67.11
384 (UGGACGAUCUUGCCAUAGGU; chemistry not given here) [compound 384] | 42.52
385 (GUUGGCCGGCGUGGGCCACC; chemistry not given here) [compound 385] | 43.57
386 (CUCAGUGCAUCCAAAACGUG; chemistry not given here) [compound 386] | 54.26
387 (UCGAAGUUGCAUGUGUCGGU; chemistry not given here) [compound 387] | 58.15
388 (UGGAACACGGACGGCCCGGC; chemistry not given here) [compound 388] | 60.96
389 (CCGAGAGCAGCGCAAGUGAG; chemistry not given here) [compound 389] | 40.93
390 (UCCUGCAACUGCCGGACGUG; chemistry not given here) [compound 390] | 44.61
391 (UCACCAACACGUCCCUCUCC; chemistry not given here) [compound 391] | 84.09
392 (UGCCUGCAGCAACUCCAUCC; chemistry not given here) [compound 392] | 49.75
393 (UUGGCCGGCGUGGGCCACCA; chemistry not given here) [compound 393] | 44.37
394 (GAGCCUCUGCCUCGCGUAGU; chemistry not given here) [compound 394] | 77.78
395 (AAGGGCGUCUGCCCAUAGAA; chemistry not given here) [compound 395] | 34.56

Same assay, conditions: 50 nM oligonucleotide, 72 hours, relative to vehicle control = 1.00

Substance | Normalized DMPK Remaining
377 (UUUCCCGAGUAAGCAGGCAG; chemistry not given here) [compound 377] | 0.55
378 (GGAUGUUGUCGGGUUUGAUG; chemistry not given here) [compound 378] | 0.59
379 (CAGGUAGUUCUCAUCCUGGA; chemistry not given here) [compound 379] | 0.23
380 (UGCCCAUAGAACAUUUCAUA; chemistry not given here) [compound 380] | 0.65
381 (UAGUUCUCAUCCUGGAAGGC; chemistry not given here) [compound 381] | 0.56
382 (AUGUCCCUGUGCACGUAGCC; chemistry not given here) [compound 382] | 0.51
383 (CGGGCCCGGAUCACAGGACU; chemistry not given here) [compound 383] | 0.33
384 (UGGACGAUCUUGCCAUAGGU; chemistry not given here) [compound 384] | 0.57
385 (GUUGGCCGGCGUGGGCCACC; chemistry not given here) [compound 385] | 0.56
386 (CUCAGUGCAUCCAAAACGUG; chemistry not given here) [compound 386] | 0.46
387 (UCGAAGUUGCAUGUGUCGGU; chemistry not given here) [compound 387] | 0.42
388 (UGGAACACGGACGGCCCGGC; chemistry not given here) [compound 388] | 0.39
389 (CCGAGAGCAGCGCAAGUGAG; chemistry not given here) [compound 389] | 0.59
390 (UCCUGCAACUGCCGGACGUG; chemistry not given here) [compound 390] | 0.55
391 (UCACCAACACGUCCCUCUCC; chemistry not given here) [compound 391] | 0.16
392 (UGCCUGCAGCAACUCCAUCC; chemistry not given here) [compound 392] | 0.50
393 (UUGGCCGGCGUGGGCCACCA; chemistry not given here) [compound 393] | 0.56
394 (GAGCCUCUGCCUCGCGUAGU; chemistry not given here) [compound 394] | 0.22
395 (AAGGGCGUCUGCCCAUAGAA; chemistry not given here) [compound 395] | 0.65
